# How the values were obtained:
# [1] = ROS-generating activity in cell-free system (H2DCFDA, HRP); type: biochemical; conditions: for increase of OD value vs H2DCFDA+HRP reaction: SsnB 10 μM + H2DCFDA 25 μM + HRP 5 units/ml
# Description: FIG. 2D and FIG. 2E illustrate the ROS generating capacity of SsnB evaluated in a cell-free system containing H2DCFDA (25 μM), horseradish peroxidase (HRP, 5 units/ml), SsnB (10 μM) and glutathione (GSH, 0.25 or 2.5 μM) alone or in various combinations. Optical density (O.D.) at 540 nm were taken at different time points and plotted.
# In a reaction system, after the removal of acetate group by cellular esterases and oxidation by reactive oxygen species, the non-fluorescent carboxy-H2DCFDA dye is oxidized to fluorescent molecule carboxy-DCF. To measure the ROS-generating activity of SsnB, the oxidation of carboxy-H2DCFDA dye was monitored in a cell-free system containing carboxy-H2DCFDA dye, horseradish peroxidase (HRP) and SsnB at 540 nm. HRP was used to supply esterase since without esterase carboxy-H2DCFDA is not sensitive to oxidant. […] After addition of HRP (5 units/ml) in the reaction mixture containing SsnB (10 μM)+H2DCFDA dye (25 μM), the OD value increased by 2% in the first 240 sec and further increased by 8% after 15 min compared to H2DCFDA+HRP reaction, indicating the increased oxidation of H2DCFDA to the fluorescent compound.
# [2] = test system: SH-SY5Y and SK-N-BE(2) cells; test: Hanging-drop assay for spheroid formation; type: cell-based, human; conditions: day 12
# Description: 3-D in vitro hanging drop assay was carried out to detect the SsnB effect in neuroblastoma spheroid formation. Neuroblastoma cells were prepared as single cell suspension in complete culture medium (DMEM+10% FBS) without or with SsnB (1 and 10 μM). Twenty microliter drops of each prepared cell suspension containing 20,000 cells/drop were pipetted into the inner side of the lid of a 60 mm diameter tissue culture dish. The lid was gently inverted and placed on top of the culture dish filled with 5 ml of sterile 1×PBS to humidify the culture chamber. The drops were incubated under tissue culture conditions (at 37° C. and 5% CO2) allowing the cells to form aggregate at the base of the droplet. The cells in each droplet were photographed using Olympus SZX2 stereo microscope (Olympus America Inc., Center Valley, Pa.).
# As SsnB inhibited the formation of neuroblastoma colony in anchorage-independent agarose gel assay, the ability of SsnB to inhibit the initiation of neuroblastoma tumors was tested in a hanging drop assay method. In the hanging drop assay the cells under the force of gravity and surface tension start accumulating at the bottom of the hanging drop and join together to form a spheroid. […]
# [3] = test system: SH-SY5Y tumors; type: in vivo
# Description: Six-week-old female homozygous athymic nude mice (nu/nu; strain-Crl:NU-Foxn1nu) were purchased from Charles River Laboratories (Wilmington, Mass.), and housed in the University of South Carolina Animal Research Facility. All animal experiments were carried out in compliance with the National Institute of Health (NIH) guidelines and were approved by the Institutional Animal Care and Use Committee (IACUC) of the University of South Carolina. The animals were maintained at 25° C. with a 12-h light/12-h dark cycle in laminar flow cabinets under specific pathogen-free conditions and given sterile water and food ad libitum.
# A neuroblastoma xenograft mice model using SH-SY5Y cells was used. To develop localized subcutaneous tumors, 2×10^7 SH-SY5Y cells were mixed 1:1 with matrigel (BD biosciences, San Jose, Calif.) to make 0.1 ml total volume, and cells were injected subcutaneously into the flank region of mice using sterile 27-gauge needle. The animal weight and general appearance were recorded regularly throughout the experiments. On every third day, tumor size was measured with calipers and tumor volume was calculated using the ellipsoid formula (length×width×height×0.5).
# Tumor-bearing mice were divided into two groups—(i) control without SsnB treatment, n=4; and (ii) experimental with SsnB treatment (10 mg/kg body weight per mice), n=4. […]
# Paraformaldehyde-fixed paraffin-embedded tumor sections (5 μm thick) were deparaffinized in xylene and rehydrated with sequential immersion in graded ethanol (100%, 95%, 85%, 70% and 50%). […] Primary antibodies were detected with secondary antibodies conjugated with fluorescein isothiocyanate (FITC) (1:4000 dilution in 5% IgG-free BSA/PBS) for 2 h at room temperature. After washing with 1×PBS for 4 times (10 min for each washing), sections were mounted with antifade Vectashield mounting media (Vector Laboratories, Burlingame, Calif.), and signals were visualized under Nikon-E600 fluorescence microscope (Nikon, Tokyo, Japan). […]
structure (smiles),measurement,setting,value
"O=c1occ2c3c(ccc(O)c13)Oc1ccc(O)cc1-2 [SsnB, 8,5′-dihydroxy-4-phenyl-5,2′-oxidoisocoumarin]",increase of OD value vs H2DCFDA+HRP reaction,[1]; after 15 min,8%
same,increase of OD value vs H2DCFDA+HRP reaction,[1]; first 240 sec,2%
same,optical density at 540 nm,"[1]; SsnB 10 μM + H2DCFDA 25 μM, without HRP",remained constant
same,spheroid formation,[2]; SsnB 1 μM,compact cell clusters were formed
same,spheroid formation,[2]; SsnB 10 μM,unable to aggregate to form compact spheroids
same,average tumor volume,"[3]; 10 mg/kg body weight daily intraperitoneal, 15 days, control 883.75±68.23 mm^3",146.5±14.08 mm^3
same,cleaved caspase-3 signals in tumors,"[3]; 10 mg/kg, immunohistochemistry, p<0.05 vs control",significantly detected
same,TUNEL positive cells in tumors,"[3]; 10 mg/kg, p<0.05 vs control",increased the number of TUNEL positive cells

# — patent US9446019B2, “Sparstolonin B based pharmaceutical agent for neuroblastoma treatment” (University of South Carolina, priority 2013, dated 2016)
